# Test results: patent publication US7851473B2, “Amide compound” (Takeda Pharmaceutical Company Limited, priority 2004, dated 2010)
# System: rat local cerebral ischemic model
# Experiment: Cerebroprotective effect in a rat cerebral ischemic model (middle cerebral artery occlusion)
# Type: in vivo
# Conditions: SD rats, 120 minutes occlusion; intravenous, immediately after reperfusion and after 2, 4 and 6 hours; measured two days after ischemia; p<0.05
# Experimental: The compound obtained in Example 1 as an FAAH inhibitory agent (hereinafter, referred to as Compound A) was administered intravenously to a rat local cerebral ischemic model, and the inhibitory effect of the compound on cerebral infarct volume was examined. For the cerebral ischemic model, 8 weeks-old male SD rats (CLEA Japan, Inc.) were used to generate a middle cerebral artery occlusion model (Kiyota, et al., Experimental Brain Research, 95, 388-396 (1993)). That is, under halothane anesthesia, a silicone-coated plug was inserted into the rat from the right common carotid artery to the origin of middle cerebral artery to induce occlusion for 120 minutes. Compound A of Example was intravenously administered immediately after reperfusion and after 2, 4 and 6 hours, respectively. Two days after the ischemia treatment, the rat brain was extracted, 2 mm-thick slices of anterior maxillary section were prepared therefrom, and the cerebral infarct volume was measured from their TTC-stained images by image analysis.
structure (smiles),measurement,value
O=C(Nc1noc2ccccc12)N1CCN(c2nc(-c3ccccc3)ns2)CC1 [Compound A],cerebral infarct volume compared with the solvent-administered group,significantly smaller
